{
  "source": "ChEMBL document CHEMBL5465560",
  "about": "“Selectivity Literature for EUbOPEN Chemogenomic Library” (2024)",
  "key": {"[1]": {"target": "Receptor-type tyrosine-protein kinase FLT3 (Homo sapiens) (UniProt P36888)", "assay": "(§1) Selectivity interaction (Ambit KINOMEscan and KiNATiv profiling in Jurkat cells) EUB0000090b FLT3", "type": "cell-based", "details": "at 1 µM"}, "[2]": {"test_system": "T1, Receptor-type tyrosine-protein kinase FLT3 (Homo sapiens), P36888 [D835H]", "T1 sequence (whole entry)": "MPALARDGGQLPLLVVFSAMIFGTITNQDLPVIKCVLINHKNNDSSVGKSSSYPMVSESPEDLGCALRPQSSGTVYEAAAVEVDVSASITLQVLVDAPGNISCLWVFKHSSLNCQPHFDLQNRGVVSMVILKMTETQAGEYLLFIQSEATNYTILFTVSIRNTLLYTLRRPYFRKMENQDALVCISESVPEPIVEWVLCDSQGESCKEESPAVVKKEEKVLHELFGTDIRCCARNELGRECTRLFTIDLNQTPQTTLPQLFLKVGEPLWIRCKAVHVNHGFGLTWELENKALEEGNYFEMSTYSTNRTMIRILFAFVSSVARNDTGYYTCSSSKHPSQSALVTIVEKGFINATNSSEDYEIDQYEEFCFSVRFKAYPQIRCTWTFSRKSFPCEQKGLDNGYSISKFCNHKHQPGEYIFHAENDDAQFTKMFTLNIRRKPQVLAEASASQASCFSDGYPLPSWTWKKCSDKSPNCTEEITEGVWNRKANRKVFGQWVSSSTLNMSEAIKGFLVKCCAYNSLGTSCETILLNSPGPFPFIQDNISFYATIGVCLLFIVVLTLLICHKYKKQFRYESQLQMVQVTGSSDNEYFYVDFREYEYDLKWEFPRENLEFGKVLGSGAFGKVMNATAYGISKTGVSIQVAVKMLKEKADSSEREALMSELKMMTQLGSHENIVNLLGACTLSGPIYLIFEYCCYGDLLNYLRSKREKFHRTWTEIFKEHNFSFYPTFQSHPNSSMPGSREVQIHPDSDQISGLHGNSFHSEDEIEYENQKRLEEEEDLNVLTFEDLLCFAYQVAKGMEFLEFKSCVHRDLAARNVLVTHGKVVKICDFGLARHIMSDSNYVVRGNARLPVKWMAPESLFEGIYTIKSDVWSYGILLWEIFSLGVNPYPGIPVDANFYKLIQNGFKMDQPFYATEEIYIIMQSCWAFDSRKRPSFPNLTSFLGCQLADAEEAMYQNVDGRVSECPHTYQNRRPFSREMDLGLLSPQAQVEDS", "assay": "as §1", "type": "cell-based", "details": "at 1 µM"}, "[3]": {"test_system": "T2, Receptor-type tyrosine-protein kinase FLT3 (Homo sapiens), P36888 [R834Q]", "T2 sequence (whole entry)": "T1 sequence (whole entry) with R834Q, H835D", "assay": "as §1", "type": "cell-based", "details": "at 1 µM"}, "[4]": {"target": "T3, Dual specificity tyrosine-phosphorylation-regulated kinase 4 (Homo sapiens) (UniProt Q9NR20)", "T3 sequence (whole entry)": "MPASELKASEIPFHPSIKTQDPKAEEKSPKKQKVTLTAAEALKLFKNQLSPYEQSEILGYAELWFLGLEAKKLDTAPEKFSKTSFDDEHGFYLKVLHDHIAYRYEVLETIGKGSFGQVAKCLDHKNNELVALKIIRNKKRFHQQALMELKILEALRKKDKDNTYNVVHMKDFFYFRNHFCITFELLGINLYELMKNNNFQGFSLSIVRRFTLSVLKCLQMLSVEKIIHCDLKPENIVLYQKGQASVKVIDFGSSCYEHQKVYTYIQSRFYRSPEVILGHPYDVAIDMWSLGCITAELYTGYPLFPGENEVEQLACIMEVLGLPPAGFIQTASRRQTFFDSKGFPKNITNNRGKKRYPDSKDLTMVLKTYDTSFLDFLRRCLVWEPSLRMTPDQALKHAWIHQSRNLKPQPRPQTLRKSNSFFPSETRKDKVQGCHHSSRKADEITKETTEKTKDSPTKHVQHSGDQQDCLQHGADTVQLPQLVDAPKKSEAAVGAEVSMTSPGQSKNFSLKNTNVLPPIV", "assay": "Selectivity interaction (SelectScreen profiling (Invitrogen)) EUB0000607a DYRK4", "details": "at 2 µM"}, "[5]": {"target": "T4, Dual specificity mitogen-activated protein kinase kinase 6 (Homo sapiens) (UniProt P52564)", "T4 sequence (whole entry)": "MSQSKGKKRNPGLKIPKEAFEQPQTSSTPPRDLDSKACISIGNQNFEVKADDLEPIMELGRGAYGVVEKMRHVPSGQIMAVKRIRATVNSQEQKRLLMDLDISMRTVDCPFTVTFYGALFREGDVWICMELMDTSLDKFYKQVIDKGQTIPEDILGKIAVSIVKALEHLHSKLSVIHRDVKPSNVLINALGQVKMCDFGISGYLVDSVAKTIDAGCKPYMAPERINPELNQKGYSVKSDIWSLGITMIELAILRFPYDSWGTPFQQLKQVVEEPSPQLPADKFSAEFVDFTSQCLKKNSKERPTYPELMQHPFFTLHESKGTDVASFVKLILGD", "assay": "Selectivity interaction (KinomeScan (DiscoverX)) EUB0001619a MAP2K6", "details": "at 1 µM"}, "[6]": {"target": "Protein kinase C gamma type (Homo sapiens) (UniProt P05129)", "assay": "Selectivity interaction (Kinase screening (Upstate/Millipore)) EUB0000604a PRKCG"}},
  "note": "Residue numbers refer to the chain shown, from its start.",
  "data": [
    {"molecule": "CN(C)C/C=C/C(=O)Nc1ccc(C(=O)N2CCCC(Nc3ncc(Cl)c(-c4c[nH]c5ccccc45)n3)C2)cc1", "note": "(stereo unspecified)", "values": [
      {"measurement": "% of control", "setting": "[1]", "value": 94, "unit": "%"},
      {"measurement": "% of control", "setting": "[2]", "value": 64, "unit": "%"},
      {"measurement": "% of control", "setting": "[3]", "value": 92, "unit": "%"}
    ]},
    {"molecule": "CNC(=O)Nc1ccc(-c2nc(N3CC4CCC(C3)O4)c3cnn(C4CCC5(CC4)OCCO5)c3n2)cc1", "values": [
      {"measurement": "% of inhibition", "setting": "[4]", "value": 4, "unit": "%"}
    ]},
    {"molecule": "N#Cc1cccc(-c2c[nH]c3ncnc(N4CCOCC4)c23)c1", "values": [
      {"measurement": "% of control", "setting": "[5]", "value": 80, "unit": "%"}
    ]},
    {"molecule": "Cc1cnc(Nc2ccc(F)cc2Cl)nc1-c1c[nH]c(C(=O)N[C@H](CO)c2cccc(Cl)c2)c1", "values": [
      {"measurement": "% of inhibition", "setting": "[6]", "value": 11, "unit": "%"}
    ]}
  ]
}
